From US20050197376A1, “Concomitant drugs” (Fujisawa Pharmaceutical Co. Ltd., priority 2004, published 2005)

Test system: type II diabetic patients
Experiment: Concurrent oral administration with sulfonylurea to type II diabetic patients
Type: in vivo, human
Conditions: type II diabetic patients on sulfonylureas (glipizide, glyburide or glimepiride); 15 mg/day oral, concurrently with sulfonylurea, plural months

## CCCCCS(=O)(=O)NC(=O)c1ccc2nc(C)n(Cc3ccc(Cl)cc3Cl)c2c1 [(3), 1-(2,4-dichlorobenzyl)-2-methyl-N-(pentylsulfonyl)-1H-benzimidazole-6-carboxamide]
  HbAlc decrease: not less than 1 % point
